The source of these data is US9427442B2, “Fluoroalkyl and fluorocycloalkyl 1,4-benzodiazepinone compounds” (BRISTOL-MYERS SQUIBB COMPANY, priority 2012, dated 2016).

In series [1] the test system is TALL-1. Nature of the series: Human Tumor Xenograft Models in Mice (TALL-1). The series is classed as in vivo. The protocol: Human Tumor Xenograft Models in Mice
Mice were fed food and water ad libitum.
When death occurred, the day of death was recorded.
(Xenograft models place foreign cells or tissue in a host animal.)

In series [2] the test system is human Notch 1. Nature of the series: Notch-CBF1 Transactivation Assay (Notch 1). The series is classed as cell-based. To be noted: read-out: Notch 1 (IC50); HeLa cells transfected with truncated Notch 1 and CBF1 luciferase reporter; 18 hours; average of N experiments. The text has this:
(§1) Notch-CBF1 Transactivation Assay
(§2) The Notch-CBF1 (C-promoter binding factor I) cell based transactivation assay is based on the ability of the released Notch intracellular domain fragments (NICDs) to function as transcription factors in conjunction with CBF1 and other nuclear factors. Luciferase assays were used to measure the antagonism of Notch-CBF1 transcriptional activity. HeLa cervical cancer cells are transiently co-transfected with pCDNA3.1/Hygro plasmids containing truncated Notch 1, Notch 2, Notch 3, or Notch 4 receptors and a PGL3 luciferase reporter vector containing 4 copies of CBF1 binding site. The cells were then tested for Notch-CBF1 activity in the absence or presence of test compounds. HeLa cells, maintained in DMEM (high glucose with HEPES), 1× glutamine/penicillin/streptomycin and 10% Fetal Bovine serum, were transiently transfected in a T175 Flask (4.5×10^6 cells/flask) using the Monster Transfection Kit (Minis #MIR2906) according to manufacturers specifications. Table 5 denotes respective DNA quantity for the transfections.
(§3) Assay media (5 μL) containing test compounds in final concentrations ranging from 5 μM to 8.4×10^−5 μM (3 fold serial dilutions) were added to the cells and the cell plates were then incubated for 18 hours at 37° C. and 5% CO2. Control wells contained DMSO vehicle (total counts) or 0.5 μM of an in-house small molecule inhibitor (background counts). Duplicates were used for each sample. Luciferase activity was measured after a 20-minute incubation with 50 μl STEADY-GLO® luciferase reagents according to manufacturer's specifications (Promega, Cat. #E2550) and analyzed by Envision plate reader (PerkinElmer, Boston, Mass.).
(§4) The antagonist effect of compounds was expressed as 100×[1−(average sample−average background)/(average total−average background)] where sample is the luciferase activity in the presence of test compound, background is equal to the luciferase activity in the presence of the small molecule inhibitor control and the total is signal induced in DMSO wells.
A general note: A reporter such as luciferase makes a cellular process visible.

For series [3], the system named is human Notch 3. Nature of the series: Notch-CBF1 Transactivation Assay (Notch 3). The series is classed as cell-based. The settings on record: read-out: Notch 3 (IC50); HeLa cells transfected with truncated Notch 3 and CBF1 luciferase reporter; 18 hours; average of N experiments.
Description: as §1, §2, §3, §4

The nature of series [4]: Human metabolic stability half-life assay. It is filed as in vitro ADME. To be noted: pH 7.4; human liver microsomes, NADPH, 0.5 μM compound, 45-minute time course; read-out: HLM (t1/2, min). The text has this: Metabolic Stability Half-Life Panel
On the technique in general: Microsomes from liver hold many membrane-bound enzymes, among them those of drug oxidation.

Take `Cc1cccc2c1NC(=O)[C@@H](NC(=O)[C@H](CCC(F)(F)F)[C@H](CC1CC(F)(F)C1)C(N)=O)N=C2c1ccccc1` [Example 1, (2R,3S)-3-((3,3-Difluorocyclobutyl)methyl)-N-((3S)-9-methyl-2-oxo-5-phenyl-2,3-dihydro-1H-1,4-benzodiazepin-3-yl)-2-(3,3,3-trifluoropropyl)succinamide]: the “antitumor activity with oral administration (PO)” value in series [1] (Human Tumor Xenograft Models in mice, oral) was “showed antitumor activity”. Besides, the “Antitumor Activity in TALL-1 (LCK) BID dosing” value in series [1] (Oral Administration, Dose 10, Schedule BIDx10, LCK = Log Cell Kill, NOD-SCID mice) was determined as 2.7. In addition, the IC50 (usually the concentration that gives 50% inhibition) in series [2] is 3 nM; in series [3], 2.4 nM. In addition, the half-life at 0.5 µM in series [4] was 60 min.
As for `NC(=O)[C@@H](C1CCC(F)(F)CC1)[C@@H](CCC(F)(F)F)C(=O)N[C@H]1N=C(c2ccccc2)c2cccc(Cl)c2NC1=O` [Example 5, (2R,3S)—N-((3S)-9-Chloro-2-oxo-5-phenyl-2,3-dihydro-1H-1,4-benzodiazepin-3-yl)-3-(4,4-difluorocyclohexyl)-2-(3,3,3-trifluoropropyl)succinamide], the half-inhibitory concentration (IC50) in series [2] was found to be 4.4 nM; in series [3], 7.3 nM. Moreover, the half-life at 0.5 µM in series [4] was found to be 72 min.
On the same counts, the results for `CC(F)(F)C[C@H](C(N)=O)[C@@H](CCC(F)(F)F)C(=O)N[C@H]1N=C(c2ccccc2)c2ccccc2NC1=O` [Example 18, (2R,3S)-3-(2,2-Difluoropropyl)-N-((3S)-2-oxo-5-phenyl-2,3-dihydro-1H-1,4-benzodiazepin-3-yl)-2-(3,3,3-trifluoropropyl)succinamide] are 2.7 nM, 10.8 nM and greater than 120 min.
On the same counts, the results for `C[C@@H](C[C@H](C(N)=O)[C@@H](CCC(F)(F)F)C(=O)N[C@H]1N=C(c2ccccc2)c2cccc(F)c2NC1=O)C(F)(F)F` [Example 19, (2R,3S)—N-((3S)-9-Fluoro-2-oxo-5-phenyl-2,3-dihydro-1H-1,4-benzodiazepin-3-yl)-3-((2S)-3,3,3-trifluoro-2-methylpropyl)-2-(3,3,3-trifluoropropyl)succinamide] are 2.9 nM, 2.4 nM and 80 min.
On the same counts, the results for `Cc1cccc(C2=N[C@H](NC(=O)[C@H](CCC(F)(F)F)[C@H](CC3CC(F)(F)C3)C(N)=O)C(=O)Nc3c(Cl)cccc32)c1` [Example 10, (2R,3S)—N-((3S)-9-Chloro-5-(3-methylphenyl)-2-oxo-2,3-dihydro-1H-1,4-benzodiazepin-3-yl)-3-((3,3-difluorocyclobutyl)methyl)-2-(3,3,3-trifluoropropyl)succinamide] are 1.7 nM, 4.4 nM and 69 min.
For `NC(=O)[C@@H](C1CCC(C(F)(F)F)CC1)[C@@H](CCC(F)(F)F)C(=O)N[C@H]1N=C(c2ccccc2)c2cccc(Cl)c2NC1=O` (stereo partly drawn) [Example 4, (2R,3S)—N-((3S)-9-Chloro-2-oxo-5-phenyl-2,3-dihydro-1H-1,4-benzodiazepin-3-yl)-3-(4-(trifluoromethyl)cyclohexyl)-2-(3,3,3-trifluoropropyl)succinamide], the IC50 worked out at 11.9 nM in series [2] and 21.2 nM in series [3]. Also, in series [4], the half-life at 0.5 µM was greater than 120 min.
On the same counts, the results for `COc1ccc2c(c1)NC(=O)[C@@H](NC(=O)[C@H](CCC(F)(F)F)[C@H](CCCF)C(N)=O)N=C2c1ccccc1` [Example 17, (2R,3S)-3-(3-Fluoropropyl)-N-((3S)-8-methoxy-2-oxo-5-phenyl-2,3-dihydro-1H-1,4-benzodiazepin-3-yl)-2-(3,3,3-trifluoropropyl)succinamide] are 5.8 nM, 11 nM and greater than 120 min.
The like results for `NC(=O)[C@@H](CC1CC(F)(F)C1)[C@@H](CCC(F)(F)F)C(=O)N[C@H]1N=C(c2ccccc2)c2cccc(C3CC3)c2NC1=O` [Example 12, (2R,3S)—N-((3S)-9-Cyclopropyl-2-oxo-5-phenyl-2,3-dihydro-1H-1,4-benzodiazepin-3-yl)-3-((3,3-difluorocyclobutyl)methyl)-2-(3,3,3-trifluoropropyl)succinamide] were, in that order, 5.6 nM, 4.3 nM and 41 min.
Regarding `C[C@@H](C[C@H](C(N)=O)[C@@H](CCC(F)(F)F)C(=O)N[C@H]1N=C(c2ccccc2)c2cccc(Cl)c2NC1=O)C(F)(F)F` [Example 23, (2R,3S)—N-((3S)-9-Chloro-2-oxo-5-phenyl-2,3-dihydro-1H-1,4-benzodiazepin-3-yl)-3-((2S)-3,3,3-trifluoro-2-methylpropyl)-2-(3,3,3-trifluoropropyl)succinamide], the IC50 in series [2] is 5.1 nM; in series [3], 3.2 nM. Further, the half-life at 0.5 µM in series [4] amounted to 111 min.
